Among the data in patent US10144737B2 (ETERNITY BIOSCIENCE INC., priority 2014, dated 2018) are GI50 and IC50 values, retold here.

In one assay the test system is TMD-8 cells. The experiment in a line: Cell proliferation assay (CellTiter-Glo), TMD-8 cells. The assay is classed as cell-based. The conditions noted are these: Homo sapiens, TMD8, 120 h, 5-day treatment, read-out: TMD8 cell growth (GI50 μM). The protocol: Cell proliferation assay: TMD-8 and SU-DHL-1 cells were maintained at 37° C. in a humidified atmosphere with 5% CO2 in the recommended medium and serum concentrations. For cell proliferation assay, cells were seeded in 96-well pates at a density of 5,000 to 10,000 cells per well and cultured overnight at 37° C. in recommended medium supplemented with 5-10% FBS. On the next day, the test articles at various concentrations or vehicle control (0.5% DMSO) were added into cell culture. After 5-day treatment, the growth of cells was assayed by the CellTiter-Glo® Luminestceaent Cell Viability Assay (Promega). IC50 values were calculated using GraphPad Prism by plotting the logarithm of the concentration versus percent inhibition of cell growth as compared with the vehicle control.

A further assay concerns the target T1, Btk (Homo sapiens, UniProt Q06187).
T1 construct: purchased Promega (Madison, Wis.)
The experiment in a line: Btk kinase assay (ADP-Glo). The assay is classed as biochemical. The conditions noted are these: ADP-Glo Btk kinase assay kit; ATP 1.2 μM; 60 minutes at room temperature. The protocol:
Btk kinase assay—The Btk kinase assay was performed using a ADP-Glo Btk kinase assay kit purchased from Promega (Madison, Wis.). The assay was conducted according to the protocols provided in the assay kit. In brief, the enzyme reaction was carried out in the kinase reaction buffer containing Btk (2 ng/μl), ATP (1.2 μM), poly GT peptide (0.3 μM), DTT (40 nM), MnCl2 (1.4 mM), and 1 xkinase buffer (included in the kit) in the presence or absence of the tested articles at various concentrations in 384-well plate at room temperature (22±1° C.) for 60 minutes. The final reaction volume for each reaction was 10 μl. Then, 4 μl of ADP-Glo reagent (included in the kit) was added into the reaction and the plate was further incubated for another 40 minutes to terminate the reaction and deplete the remaining ATP. Finally, 10 μl of the kinase detection reagent was added into each reaction to simultaneously convert ADP to ATP and allow the newly synthesized ATP to be measured by a plate-reading luminometer (Victor X5 2030 multilabel reader, PerkinElmer). IC50 value was calculated using appropriate programs in GraphPad Prism by plotting the logarithm of the concentration versus percent inhibition as compared with a vehicle (DMSO) control.

T1 sequence (Q06187 whole entry): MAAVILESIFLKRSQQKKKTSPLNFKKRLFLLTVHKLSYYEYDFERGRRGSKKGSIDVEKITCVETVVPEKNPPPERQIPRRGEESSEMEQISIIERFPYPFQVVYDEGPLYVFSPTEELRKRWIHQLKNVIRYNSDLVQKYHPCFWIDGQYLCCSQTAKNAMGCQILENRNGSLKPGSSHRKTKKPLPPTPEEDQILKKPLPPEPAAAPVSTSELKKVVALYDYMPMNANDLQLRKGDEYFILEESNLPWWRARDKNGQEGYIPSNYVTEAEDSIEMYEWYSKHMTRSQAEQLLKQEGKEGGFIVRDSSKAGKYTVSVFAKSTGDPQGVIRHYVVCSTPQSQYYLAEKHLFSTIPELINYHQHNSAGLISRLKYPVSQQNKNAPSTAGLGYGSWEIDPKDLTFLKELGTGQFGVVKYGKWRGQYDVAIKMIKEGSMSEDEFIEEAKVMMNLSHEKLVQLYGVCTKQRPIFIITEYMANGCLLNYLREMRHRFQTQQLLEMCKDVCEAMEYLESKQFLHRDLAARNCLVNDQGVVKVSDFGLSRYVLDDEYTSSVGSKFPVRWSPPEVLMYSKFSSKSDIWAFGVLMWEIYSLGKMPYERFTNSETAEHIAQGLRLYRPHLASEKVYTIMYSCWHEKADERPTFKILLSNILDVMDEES

In the case of `C=CC(=O)N1CCN(c2ncnc3[nH]c(C#CCOc4ccccc4)cc23)CC1` [Example 1, 1-(4-(6-(3-phenoxyprop-1-yn-1-yl)-7H-pyrrolo[2,3-d]pyrimidin-4-yl)piperazin-1-yl)prop-2-en-1-one], the GI50 in the assay on TMD-8 cells turned out to be 0.054 µM. This molecule also came in with an IC50 against Btk of 109 nM.

On to `CN(C)C/C=C/C(=O)N1CCN(c2ncnc3[nH]c(C#CCOc4ccccc4)cc23)CC1` [Example 2, (E)-4-(dimethylamino)-1-(4-(6-(3-phenoxyprop-1-yn-1-yl)-7H-pyrrolo[2,3-d]pyrimidin-4-yl)piperazin-1-yl)but-2-en-1-one], for which, in the assay on TMD-8 cells, the GI50 was found to be 0.034 µM. Further, on Btk, the IC50 stood at 3.3 nM. On to `CNC/C=C/C(=O)N1CCN(c2ncnc3[nH]c(C#CCOc4ccccc4)cc23)CC1` [Example 3, (E)-4-(methylamino)-1-(4-(6-(3-phenoxyprop-1-yn-1-yl)-7H-pyrrolo[2,3-d]pyrimidin-4-yl)piperazin-1-yl)but-2-en-1-one], for which, in the assay on TMD-8 cells, the GI50 was 2.9 µM. Besides, the IC50 on Btk turned out to be 2.3 nM. Turning to `C=CC(=O)N1CCN(c2ncnc3[nH]c(C#CCOCc4ccccc4)cc23)CC1` [Example 4, 1-(4-(6-(3-(benzyloxy)prop-1-yn-1-yl)-7H-pyrrolo[2,3-d]pyrimidin-4-yl)piperazin-1-yl)prop-2-en-1-one], the GI50 in the assay on TMD-8 cells amounted to 0.157 µM. The midpoint of inhibition at Btk, the IC50, lay at 60 nM.

Consider `C=CC(=O)N1CCN(c2ncnc3[nH]c(C#CCOC)cc23)CC1` [Example 5, 1-(4-(6-(3-methoxyprop-1-yn-1-yl)-7H-pyrrolo[2,3-d]pyrimidin-4-yl)piperazin-1-yl)prop-2-en-1-one], for which, in the assay with TMD-8 cells, the GI50 came to 1.66 µM. Further, the IC50 against Btk turned out to be 257 nM. In the same order, the values of `C=CC(=O)N1CCN(c2ncnc3[nH]c(C#CCOc4ccccc4)nc23)CC1` [Example 6, 1-(4-(8-(3-phenoxyprop-1-yn-1-yl)-9H-purin-6-yl)piperazin-1-yl)prop-2-en-1-one] are 0.019 µM and 16.4 nM. As to `CN(C)C/C=C/C(=O)N1CCN(c2ncnc3[nH]c(C#CCOc4ccccc4)nc23)CC1` [Example 7, (E)-4-(dimethylamino)-1-(4-(8-(3-phenoxyprop-1-yn-1-yl)-9H-purin-6-yl)piperazin-1-yl)but-2-en-1-one], the GI50 in the assay with TMD-8 cells turned out to be 0.141 µM. In addition, on Btk, the IC50 turned out to be 3 nM. Turning to `O=C(/C=C/CN1CCOCC1)N1CCN(c2ncnc3[nH]c(C#CCOc4ccccc4)nc23)CC1` [Example 8, (E)-4-morpholino-1-(4-(8-(3-phenoxyprop-1-yn-1-yl)-9H-purin-6-yl)piperazin-1-yl)but-2-en-1-one], the GI50 with TMD-8 cells worked out at 0.357 µM. This molecule displayed an IC50 against Btk of 332 nM. In the same order, the values of `C=CC(=O)N1CCC(Nc2ncnc3[nH]c(C#CCOc4ccccc4)nc23)C1` (stereo not drawn) [Example 9, 1-(3-((8-(3-phenoxyprop-1-yn-1-yl)-9H-purin-6-yl)amino)pyrrolidin-1-yl)prop-2-en-1-one] are 0.012 µM and 2.6 nM. In the same order, the values of `CN(C)C/C=C/C(=O)N1CCC(Nc2ncnc3[nH]c(C#CCOc4ccccc4)nc23)C1` (stereo not drawn) [Example 10, (E)-4-(dimethylamino)-1-(3-((8-(3-phenoxyprop-1-yn-1-yl)-9H-purin-6-yl)amino)pyrrolidin-1-yl)but-2-en-1-one] are 0.171 µM and 0.1 nM.

For `O=C(/C=C/CN1CCOCC1)N1CCC(Nc2ncnc3[nH]c(C#CCOc4ccccc4)nc23)C1` (stereo not drawn) [Example 11, (E)-4-morpholino-1-(3-((8-(3-phenoxyprop-1-yn-1-yl)-9H-purin-6-yl)amino)pyrrolidin-1-yl)but-2-en-1-one], the GI50 in the assay with TMD-8 cells was 1.17 µM. Moreover, half-maximal inhibition on Btk (IC50) required 60 nM. With `O=C(/C=C/CN1CCCC1)N1CCC(Nc2ncnc3[nH]c(C#CCOc4ccccc4)nc23)C1` (stereo not drawn) [Example 12, (E)-1-(3-((8-(3-phenoxyprop-1-yn-1-yl)-9H-purin-6-yl)amino)pyrrolidin-1-yl)-4-(pyrrolidin-1-yl)but-2-en-1-one], the GI50 with TMD-8 cells stood at 1.3 µM. At Btk, the concentration for half-maximal inhibition (IC50) was determined as 0.3 nM. The matching figures for `C=CC(=O)N1CCC(Nc2ncnc3[nH]c(C#CCOc4cccc(Cl)c4)nc23)C1` (stereo not drawn) [Example 13, 1-(3-((8-(3-(3-chlorophenoxy)prop-1-yn-1-yl)-9H-purin-6-yl)amino)pyrrolidin-1-yl)prop-2-en-1-one]: 0.019 µM and 1.9 nM. In the same order, the values of `C=CC(=O)N1CCC(Nc2ncnc3[nH]c(C#CCOc4ccc(F)c(F)c4)nc23)C1` (stereo not drawn) [Example 14, 1-(3-((8-(3-(3,4-difluorophenoxy)prop-1-yn-1-yl)-9H-purin-6-yl)amino)pyrrolidin-1-yl)prop-2-en-1-one] are 0.134 µM and 15 nM. As to `C=CC(=O)N1CCC(Nc2ncnc3[nH]c(C#CCOc4cccc(F)c4)nc23)C1` (stereo not drawn) [Example 15, 1-(3-((8-(3-(3-fluorophenoxy)prop-1-yn-1-yl)-9H-purin-6-yl)amino)pyrrolidin-1-yl)prop-2-en-1-one], in the assay on TMD-8 cells, the GI50 is 0.019 µM. On Btk, this molecule had an IC50 of 14.8 nM. In the same order, the values of `C=CC(=O)N1CCC(Nc2ncnc3[nH]c(C#CCOc4ccccc4F)nc23)C1` (stereo not drawn) [Example 16, 1-(3-((8-(3-(2-fluorophenoxy)prop-1-yn-1-yl)-9H-purin-6-yl)amino)pyrrolidin-1-yl)prop-2-en-1-one] are 0.003 µM and 0.6 nM. As for `C=CC(=O)N1CCC(Nc2ncnc3[nH]c(C#CCOc4cc(F)cc(F)c4)nc23)C1` (stereo not drawn) [Example 17, 1-(3-((8-(3-(3,5-difluorophenoxy)prop-1-yn-1-yl)-9H-purin-6-yl)amino)pyrrolidin-1-yl)prop-2-en-1-one], in the assay on TMD-8 cells, the GI50 worked out at 0.25 µM. In addition, the IC50 against Btk was found to be 212 nM. The matching figures for `C=CC(=O)N1CCC(Nc2ncnc3[nH]c(C#CCOc4ccccc4Cl)nc23)C1` (stereo not drawn) [Example 18, 1-(3-((8-(3-(2-chlorophenoxy)prop-1-yn-1-yl)-9H-purin-6-yl)amino)pyrrolidin-1-yl)prop-2-en-1-one]: 0.002 µM and 0.02 nM. In the same order, the values of `C=CC(=O)N1CCC(Nc2ncnc3[nH]c(C#CCOc4ccc(Cl)cc4)nc23)C1` (stereo not drawn) [Example 19, 1-(3-((8-(3-(4-chlorophenoxy)prop-1-yn-1-yl)-9H-purin-6-yl)amino)pyrrolidin-1-yl)prop-2-en-1-one] are 0.148 µM and 22 nM. As to `C=CC(=O)N1CCC(Nc2ncnc3[nH]c(C#CCOc4ccc(F)cc4)nc23)C1` (stereo not drawn) [Example 20, 1-(3-((8-(3-(4-fluorophenoxy)prop-1-yn-1-yl)-9H-purin-6-yl)amino)pyrrolidin-1-yl)prop-2-en-1-one], the GI50 in the assay with TMD-8 cells worked out at 0.051 µM. Moreover, the IC50 against Btk is 0.5 nM. With `CN(C)C/C=C/C(=O)N1CCC(Nc2ncnc3[nH]c(C#CCOc4ccc(Cl)cc4)nc23)C1` (stereo not drawn) [Example 21, (E)-1-(3-((8-(3-(4-chlorophenoxy)prop-1-yn-1-yl)-9H-purin-6-yl)amino)pyrrolidin-1-yl)-4-(dimethylamino)but-2-en-1-one], the GI50 in the assay with TMD-8 cells turned out to be 1.8 µM. This molecule also returned an IC50 on Btk of 4 nM. In the same order, the values of `CN(C)C/C=C/C(=O)N1CCC(Nc2ncnc3[nH]c(C#CCOc4ccc(F)cc4)nc23)C1` (stereo not drawn) [Example 22, (E)-1-(3-((8-(3-(4-fluorophenoxy)prop-1-yn-1-yl)-9H-purin-6-yl)amino)pyrrolidin-1-yl)-4-(dimethylamino)but-2-en-1-one] are 1 µM and 0.02 nM. The matching figures for `CN(C)C/C=C/C(=O)N1CCC(Nc2ncnc3[nH]c(C#CCOc4ccccc4F)nc23)C1` (stereo not drawn) [Example 23, (E)-1-(3-((8-(3-(2-fluorophenoxy)prop-1-yn-1-yl)-9H-purin-6-yl)amino)pyrrolidin-1-yl)-4-(dimethylamino)but-2-en-1-one]: 0.107 µM and 1.5 nM. The matching figures for `C=CC(=O)N1CCC(Nc2ncnc3[nH]c(C#CCOc4ccc(F)cc4F)nc23)C1` (stereo not drawn) [Example 24, 1-(3-((8-(3-(2,4-difluorophenoxy)prop-1-yn-1-yl)-9H-purin-6-yl)amino)pyrrolidin-1-yl)prop-2-en-1-one]: 0.01 µM and 1 nM. Regarding `C=CC(=O)N1CCC(Nc2ncnc3[nH]c(C#CCOc4ccccc4OC)nc23)C1` (stereo not drawn) [Example 25, 1-(3-((8-(3-(2-methoxyphenoxy)prop-1-yn-1-yl)-9H-purin-6-yl)amino)pyrrolidin-1-yl)prop-2-en-1-one], in the assay on TMD-8 cells, the concentration for 50% growth inhibition (GI50) was found to be 0.006 µM. On Btk, this molecule gave an IC50 of 1 nM.

In the case of `O=C(/C=C/c1cccs1)N1CCC(Nc2ncnc3[nH]c(C#CCOc4ccccc4)cc23)C1` (stereo not drawn) [Example 37, (E)-1-(3-((6-(3-phenoxyprop-1-yn-1-yl)-7H-pyrrolo[2,3-d]pyrimidin-4-yl)amino)pyrrolidin-1-yl)-3-(thiophen-2-yl)prop-2-en-1-one], the IC50 at Btk came to 1180 nM.
